# Article PMC11316798, “Signaling by a bacterial phytochrome histidine kinase involves a conformational cascade reorganizing the dimeric photoreceptor” (Nature Communications, 2024)
# B1: Pseudomonas syringae bacteriophytochrome photoreceptor BphP1 (PsBphP1), full length, assembled with biliverdin (natural protein)
# chain: GMSQLDKDAFEVLLANCADEPIQFPGAIQPHGLLFTLKEPELTILQVSANVQSVLGKVPDQLAGQTLDCVLGAGWAEVIRSTSANDSLVDVPRLLMSVEGVEFEALLHRSQEALVLELEIQDKAAQAISYSERTGNMGRMLRQLHAAADLQTLYEVSVREIQRMTGYDRVLIYRFEEEGHGQVIAEASAPAMELFNGLFFPASDIPEQARELYRRNWLRIIPDANYTPVPLVPQLRPDTQQQLDLSFSTLRSVSPIHCQYMKNMGVLSSMSVSLIQGGKLWGLISCGHRTPLYVSHELRSACQAIGQVLSLQISAMEALEVSRQRETKIQTLQQLHQMMATSDTDVFDGLAQQPQLLMDLVGATGVAIIEDRQTHCYGNCPEPSDIRALHTWMMAGGEPVYASHHLSSVYPPGEAYQTLASGVLAMSLPKPVDNGVIWFRPEVKQSVQWSGDPNKPLNLDASDNTLRLQPRTSFEIWKVEMTGIATKWSHGDVFAANDLRRSALENDLARQVSKEQQAVRARDELVAVVSHDLRNPMTVISMLCGMMQKSFSSDGPHTSRRISTAIDTMQQAASRMNVLLEDLLDTSKIEAGRYTITPQPLEVSQIFEEAYTLLAPLAMDKSIEISFNAEPDIKVNADPERLFQVLSNLIGNAIKFTPKLGRIGVAAMSNGDEVVFTVRDSGEGIPPEQLPHIFERYWTVKEGNPTGTGLGLYISQGIIKAHGGELAAQSQVGHGSEFRFTVPIAH
# modifications: biliverdin (BV) covalently linked via a thioether linkage to Cys16
# notes: PsBphP1, bacteriophytochrome histidine kinase of Pseudomonas syringae, full-length polypeptide, residues 1-745; One molecule for both light states: Pr (dark-adapted) and Pfr (red-light irradiated, ~80% Pfr); the state is named in each assay; Dimer as Pr; dimer-tetramer (dimer-of-dimers) equilibrium as Pfr; also called P. syringae BphP1; P. syringae BphP; not shown: His6, N-terminal, cleaved
# Legend:
# [1] = biological target: T1, PsAlgB (mixed with PsBphP1) (Pseudomonas syringae group genomosp. 3, UniProt Q88AQ2); conditions: 1.5 mM ATP, 5 mM MgCl2, pH 7.5, 22 °C, 175 mM KSCN; needs PsBphP1 (Pr or Pfr); authors presume the ATPase is intrinsic to PsAlgB
# T1 construct: gene algB
# PsBphP1 = biological target: T2, PsBphP1 (Pseudomonas syringae group genomosp. 3, UniProt Q885D3); conditions: labelled compound; Pfr under red light; 150 uM ATP, 5 mM MgCl2, pH 7.5, 22 °C; phosphoacceptor His530
# T2 construct: gene bphP
# T2 sequence (Q885D3 1-745): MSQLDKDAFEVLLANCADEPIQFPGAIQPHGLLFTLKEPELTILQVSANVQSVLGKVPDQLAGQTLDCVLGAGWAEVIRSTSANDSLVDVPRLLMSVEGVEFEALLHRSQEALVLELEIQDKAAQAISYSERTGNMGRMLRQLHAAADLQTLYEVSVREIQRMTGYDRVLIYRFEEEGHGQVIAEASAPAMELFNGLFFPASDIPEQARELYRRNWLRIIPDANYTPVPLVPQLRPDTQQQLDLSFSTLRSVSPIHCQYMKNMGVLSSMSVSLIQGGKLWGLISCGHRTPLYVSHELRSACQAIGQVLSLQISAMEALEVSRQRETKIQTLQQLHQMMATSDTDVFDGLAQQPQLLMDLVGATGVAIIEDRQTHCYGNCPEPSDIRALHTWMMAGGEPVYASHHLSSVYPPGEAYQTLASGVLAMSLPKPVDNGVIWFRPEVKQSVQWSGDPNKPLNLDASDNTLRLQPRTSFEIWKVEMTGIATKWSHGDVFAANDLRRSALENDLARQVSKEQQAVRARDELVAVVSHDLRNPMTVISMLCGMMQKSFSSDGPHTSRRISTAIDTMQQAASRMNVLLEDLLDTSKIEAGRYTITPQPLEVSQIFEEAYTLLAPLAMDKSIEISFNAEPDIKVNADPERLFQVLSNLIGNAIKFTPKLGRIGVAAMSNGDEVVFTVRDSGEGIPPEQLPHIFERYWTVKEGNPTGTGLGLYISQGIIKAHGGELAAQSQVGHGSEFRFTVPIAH
# [2] = biological target: the molecule itself; assay: cryo-EM structure; PsBphP1 as Pr (dark-adapted), 0.5 mg/mL, 175 mM KSCN, 10 mM 2-mercaptoethanol, 10 mM HEPES-NaOH pH 7.5; head-to-head dimer
# [3] = biological target: the molecule itself; assay: cryo-EM structure; PsBphP1 as Pfr (irradiated 10 min with 630-nm LED), 0.5 mg/mL, 175 mM KSCN, 10 mM 2-mercaptoethanol, 10 mM HEPES-NaOH pH 7.5; dimers (medial, splayed) and tetrameric dimer-of-dimers
# T1 sequence (Q88AQ2 whole entry, one chain of several): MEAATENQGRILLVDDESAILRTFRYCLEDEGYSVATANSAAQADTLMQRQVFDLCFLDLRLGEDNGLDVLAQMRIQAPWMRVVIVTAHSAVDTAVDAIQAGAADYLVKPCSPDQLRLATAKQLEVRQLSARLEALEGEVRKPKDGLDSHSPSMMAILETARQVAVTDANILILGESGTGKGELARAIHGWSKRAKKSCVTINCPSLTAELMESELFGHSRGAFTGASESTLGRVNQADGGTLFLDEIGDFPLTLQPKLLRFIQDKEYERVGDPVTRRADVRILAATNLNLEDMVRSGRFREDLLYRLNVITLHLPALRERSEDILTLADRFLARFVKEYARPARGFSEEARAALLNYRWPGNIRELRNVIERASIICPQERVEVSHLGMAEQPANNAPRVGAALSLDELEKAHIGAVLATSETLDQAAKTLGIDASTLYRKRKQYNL
Molecule,SEC elution shift of ATP to ADP [1],"autophosphorylation with 32P-ATP, SDS-PAGE and phosphorimaging (PsBphP1)",stoichiometry N [2],stoichiometry N [3]
Nc1ncnc2c1ncn2[C@@H]1O[C@H](COP(=O)(O)OP(=O)(O)OP(=O)(O)O)[C@@H](O)[C@H]1O [ATP],the two proteins together elicited robust ATPase activity for PsAlgB,initial autophosphorylation of PsBphP1 required the predicted internal phosphoacceptor His530,–,–
B1,–,–,2,4
